Results reported in PubChem BioAssay (NCI).
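Where inhibition never reached the appropriate level, the endpoint shown equals the highest concentration tested. Otherwise, values were interpolated linearly from a five-concentration, 48-hour dose response in 96-well plates. GI50 = concentration required for 50% inhibition of growth. At the TGI there is no net growth.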

Legend:
Experiment in all cases: NCI tumour cell line growth inhibition, 48 h
[1] = system: BT-549 breast
[2] = system: HS 578T breast
[3] = system: A549 NSCLC
[4] = system: SK-MEL-5 melanoma
[5] = system: HCT-15 colon
[6] = system: SNB-19 CNS
[7] = system: SR leukemia
[8] = system: OVCAR-4 ovarian
[9] = system: MDA-MB-435
[10] = system: SF-268 CNS
[11] = system: CAKI-1 renal
[12] = system: HOP-62 NSCLC
[13] = system: IGROV1 ovarian
[14] = system: HOP-92 NSCLC
[15] = system: UACC-62 melanoma
[16] = system: UO-31 renal
[17] = system: NCI-H522 lung
[18] = system: UACC-257 melanoma
[19] = system: SF-295 CNS
[20] = system: U251 CNS
[21] = system: NCI-H226 lung
[22] = system: TK-10 renal
[23] = system: HCC-2998 colon
[24] = system: OVCAR-3 ovarian
[25] = system: HCT-116 colon
[26] = system: LOX IMVI melanoma
[27] = system: MDA-MB-231 breast
[28] = system: NCI-H23 lung
[29] = system: SK-MEL-28 melanoma
[30] = system: RPMI-8226 leukemia
[31] = system: 786-0 renal
[32] = system: SN12C renal
[33] = system: CCRF-CEM leukemia
[34] = system: COLO 205 colon
[35] = system: OVCAR-8 ovarian
[36] = system: MOLT-4 leukemia
[37] = system: KM12 colon
[38] = system: SNB-75 CNS
[39] = system: HL-60(TB) leukemia
[40] = system: RXF 393 renal
[41] = system: OVCAR-5 ovarian
[42] = system: SK-OV-3 ovarian
[43] = system: M14 melanoma
[44] = system: T-47D breast
[45] = system: A498 renal
[46] = system: NCI-H460 lung
[47] = system: ACHN renal
[48] = system: K-562 leukemia
[49] = system: MCF7 breast
[50] = system: SW-620 colon
[51] = system: MALME-3M melanoma
[52] = system: HT29 colon
[53] = system: DU-145 prostate
[54] = system: NCI/ADR-RES ovarian
[55] = system: SF-539 CNS

**Q.** O=C(Nc1nc(-c2ccc(Cl)cc2)cs1)c1ccc(O)c(O)c1 was tested. Which GI50 [1] did it give?
**A.** 3.49 µM

**Q.** And the TGI [1]?
**A.** 17.9 µM

**Q.** And the GI50 [2]?
**A.** 9.45 µM

**Q.** What about the TGI [2] of the same compound?
**A.** 53.9 µM

**Q.** And the GI50 [3]?
**A.** 2.91 µM

**Q.** What about the TGI [3] of the same compound?
**A.** 14.3 µM

**Q.** What about the GI50 [4] of the same compound?
**A.** 2.98 µM

**Q.** And the TGI [4]?
**A.** 12 µM

**Q.** And the GI50 [5]?
**A.** 3.14 µM

**Q.** What about the TGI [5] of the same compound?
**A.** 18.3 µM

**Q.** And the GI50 [6]?
**A.** 3.82 µM

**Q.** What about the TGI [6] of the same compound?
**A.** 19.7 µM

**Q.** What about the GI50 [7] of the same compound?
**A.** 2.09 µM

**Q.** What about the TGI [7] of the same compound?
**A.** 9.26 µM

**Q.** And the GI50 [8]?
**A.** 4.33 µM

**Q.** And the TGI [8]?
**A.** 35.9 µM

**Q.** What about the GI50 [9] of the same compound?
**A.** 3.18 µM

**Q.** What about the TGI [9] of the same compound?
**A.** 14.4 µM

**Q.** And the GI50 [10]?
**A.** 3.54 µM

**Q.** What about the TGI [10] of the same compound?
**A.** 13.9 µM

**Q.** And the GI50 [11]?
**A.** 3.02 µM

**Q.** And the TGI [11]?
**A.** 10.9 µM

**Q.** And the GI50 [12]?
**A.** 4.68 µM

**Q.** And the TGI [12]?
**A.** 17.6 µM

**Q.** What about the GI50 [13] of the same compound?
**A.** 2.38 µM

**Q.** And the TGI [13]?
**A.** 8.04 µM

**Q.** And the GI50 [14]?
**A.** 2.67 µM

**Q.** What about the TGI [14] of the same compound?
**A.** 9.18 µM

**Q.** And the GI50 [15]?
**A.** 4.24 µM

**Q.** And the TGI [15]?
**A.** 18.1 µM

**Q.** And the GI50 [16]?
**A.** 2.29 µM

**Q.** What about the TGI [16] of the same compound?
**A.** 10.6 µM

**Q.** What about the GI50 [17] of the same compound?
**A.** 1.8 µM

**Q.** And the TGI [17]?
**A.** 9.97 µM

**Q.** What about the GI50 [18] of the same compound?
**A.** 6.29 µM

**Q.** What about the TGI [18] of the same compound?
**A.** 24.3 µM

**Q.** And the GI50 [19]?
**A.** 11.5 µM

**Q.** What about the TGI [19] of the same compound?
**A.** 26.2 µM

**Q.** And the GI50 [20]?
**A.** 3 µM

**Q.** What about the TGI [20] of the same compound?
**A.** 13.7 µM

**Q.** What about the GI50 [21] of the same compound?
**A.** 4.65 µM

**Q.** And the TGI [21]?
**A.** 19.7 µM

**Q.** And the GI50 [22]?
**A.** 2.87 µM

**Q.** What about the TGI [22] of the same compound?
**A.** 9.98 µM

**Q.** And the GI50 [23]?
**A.** 12 µM

**Q.** And the TGI [23]?
**A.** 26.5 µM

**Q.** What about the GI50 [24] of the same compound?
**A.** 5.03 µM

**Q.** What about the TGI [24] of the same compound?
**A.** 18.2 µM

**Q.** What about the GI50 [25] of the same compound?
**A.** 3.71 µM

**Q.** What about the TGI [25] of the same compound?
**A.** 14.3 µM

**Q.** What about the GI50 [26] of the same compound?
**A.** 4.26 µM

**Q.** What about the TGI [26] of the same compound?
**A.** 15.7 µM

**Q.** And the GI50 [27]?
**A.** 4.39 µM

**Q.** What about the TGI [27] of the same compound?
**A.** 20.4 µM

**Q.** And the GI50 [28]?
**A.** 4.27 µM

**Q.** What about the TGI [28] of the same compound?
**A.** 20.3 µM

**Q.** What about the GI50 [29] of the same compound?
**A.** 3.63 µM

**Q.** What about the TGI [29] of the same compound?
**A.** 20 µM

**Q.** And the GI50 [30]?
**A.** 2.14 µM

**Q.** And the TGI [30]?
**A.** 10.7 µM

**Q.** What about the GI50 [31] of the same compound?
**A.** 4.07 µM

**Q.** What about the TGI [31] of the same compound?
**A.** 15.3 µM

**Q.** What about the GI50 [32] of the same compound?
**A.** 3.67 µM

**Q.** And the TGI [32]?
**A.** 15.7 µM

**Q.** And the GI50 [33]?
**A.** 2.22 µM

**Q.** What about the TGI [33] of the same compound?
**A.** 9.35 µM

**Q.** And the GI50 [34]?
**A.** 11.4 µM

**Q.** What about the TGI [34] of the same compound?
**A.** 26.5 µM

**Q.** What about the GI50 [35] of the same compound?
**A.** 4.14 µM

**Q.** And the TGI [35]?
**A.** 16.7 µM

**Q.** What about the GI50 [36] of the same compound?
**A.** 2.48 µM

**Q.** And the TGI [36]?
**A.** 12.3 µM

**Q.** And the GI50 [37]?
**A.** 5.36 µM

**Q.** And the TGI [37]?
**A.** 21.2 µM

**Q.** And the GI50 [38]?
**A.** 3.25 µM

**Q.** What about the TGI [38] of the same compound?
**A.** 17.4 µM

**Q.** What about the GI50 [39] of the same compound?
**A.** 2.85 µM

**Q.** And the TGI [39]?
**A.** 9.53 µM

**Q.** And the GI50 [40]?
**A.** 3.82 µM

**Q.** And the TGI [40]?
**A.** 17 µM

**Q.** And the GI50 [41]?
**A.** 14.7 µM

**Q.** And the TGI [41]?
**A.** 36.1 µM

**Q.** And the GI50 [42]?
**A.** 6.83 µM

**Q.** What about the TGI [42] of the same compound?
**A.** 22.4 µM

**Q.** And the GI50 [43]?
**A.** 4.87 µM

**Q.** What about the TGI [43] of the same compound?
**A.** 20.5 µM

**Q.** And the GI50 [44]?
**A.** 2.87 µM

**Q.** And the TGI [44]?
**A.** 18.5 µM

**Q.** What about the GI50 [45] of the same compound?
**A.** 3.37 µM

**Q.** And the TGI [45]?
**A.** 15.5 µM

**Q.** And the GI50 [46]?
**A.** 3.26 µM

**Q.** And the TGI [46]?
**A.** 12.2 µM

**Q.** What about the GI50 [47] of the same compound?
**A.** 3.24 µM

**Q.** And the TGI [47]?
**A.** 12.1 µM

**Q.** What about the GI50 [48] of the same compound?
**A.** 3.46 µM

**Q.** And the TGI [48]?
**A.** 20 µM

**Q.** What about the GI50 [49] of the same compound?
**A.** 5.49 µM

**Q.** What about the TGI [49] of the same compound?
**A.** 43.4 µM

**Q.** And the GI50 [50]?
**A.** 4.74 µM

**Q.** What about the TGI [50] of the same compound?
**A.** 20.1 µM

**Q.** What about the GI50 [51] of the same compound?
**A.** 5.73 µM

**Q.** And the TGI [51]?
**A.** 22.2 µM

**Q.** What about the GI50 [52] of the same compound?
**A.** 11.6 µM

**Q.** And the TGI [52]?
**A.** 24.7 µM

**Q.** What about the GI50 [53] of the same compound?
**A.** 4.43 µM

**Q.** What about the TGI [53] of the same compound?
**A.** 15.9 µM

**Q.** What about the GI50 [54] of the same compound?
**A.** 3.89 µM

**Q.** What about the TGI [54] of the same compound?
**A.** 20.3 µM

**Q.** And the GI50 [55]?
**A.** 3.92 µM

**Q.** And the TGI [55]?
**A.** 14.8 µM
